In patent publication US9085550B2, “Ligands for estrogen related receptors and methods for synthesis of said ligands” (CITY OF HOPE, priority 2005, dated 2015):

Legend:
[1] = molecular target: T1, HRHN-GAL (yeast GAL4 DNA binding domain without receptor sequences) (Saccharomyces cerevisiae, UniProt P04386); experiment: GAL4 reporter transactivation assay in CV-1 cells, control vector without receptor; type: cell-based, monkey; conditions: for Fold activation, HRHN-GAL: reporter 0.42:vector 0.00875, no PGC-1a
T1 construct: expressed in transfected cells; host or cells: CV-1
T1 sequence (P04386 1-147): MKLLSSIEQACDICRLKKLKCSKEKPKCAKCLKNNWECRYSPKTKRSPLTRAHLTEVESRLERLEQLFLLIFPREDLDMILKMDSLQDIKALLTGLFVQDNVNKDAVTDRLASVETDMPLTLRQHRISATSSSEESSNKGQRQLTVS

[2] = molecular target: T2, GAL-hERRa (human ERRα ligand binding domain fused to GAL4 DNA binding domain) (Homo sapiens, UniProt P11474); experiment: GAL4 reporter transactivation assay in CV-1 cells, GAL-hERRa; type: cell-based; conditions: for Fold activation, GAL-hERRa + PGC-1a / Fold activation, GAL-hERRa: CV-1; for Fold activation, GAL-hERRa + PGC-1a: reporter 0.42:vector 0.00875:PGC-1a 0.035; for Fold activation, GAL-hERRa: reporter 0.42:vector 0.00875, no PGC-1a
T2 construct: expressed in transfected cells; host or cells: CV-1
T2 sequence (P11474 193-421 limits assumed): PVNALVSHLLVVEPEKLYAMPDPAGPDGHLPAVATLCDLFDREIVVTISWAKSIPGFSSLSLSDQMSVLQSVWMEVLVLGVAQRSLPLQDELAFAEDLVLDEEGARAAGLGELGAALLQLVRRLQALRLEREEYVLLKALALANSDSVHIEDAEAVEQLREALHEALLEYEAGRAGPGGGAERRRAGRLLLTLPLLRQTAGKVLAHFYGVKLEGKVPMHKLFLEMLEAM

[3] = molecular target: T3, GAL-L-hERRb (human ERRβ ligand binding domain fused to GAL4 DNA binding domain) (Homo sapiens, UniProt O95718); experiment: GAL4 reporter transactivation assay in CV-1 cells, GAL-L-hERRb; type: cell-based; conditions: for Fold activation, GAL-L-hERRb + PGC-1a / Fold activation, GAL-L-hERRb: CV-1; for Fold activation, GAL-L-hERRb + PGC-1a: reporter 0.42:vector 0.00875:PGC-1a 0.035; for Fold activation, GAL-L-hERRb: reporter 0.42:vector 0.00875, no PGC-1a
T3 construct: expressed in transfected cells; host or cells: CV-1
T3 sequence (O95718 208-432 limits assumed): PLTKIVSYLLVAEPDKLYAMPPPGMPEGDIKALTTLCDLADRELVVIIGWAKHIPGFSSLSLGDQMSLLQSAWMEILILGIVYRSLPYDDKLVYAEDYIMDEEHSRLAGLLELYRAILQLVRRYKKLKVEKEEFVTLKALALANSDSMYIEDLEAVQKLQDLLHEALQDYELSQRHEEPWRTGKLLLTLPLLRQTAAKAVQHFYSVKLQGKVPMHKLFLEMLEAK

[4] = molecular target: T4, GAL-mERRg (mouse ERRγ ligand binding domain fused to GAL4 DNA binding domain) (Mus musculus, UniProt P62509); experiment: GAL4 reporter transactivation assay in CV-1 cells, GAL-mERRg; type: cell-based; conditions: for Fold activation, GAL-mERRg + PGC-1a / Fold activation, GAL-mERRg: CV-1; for Fold activation, GAL-mERRg + PGC-1a: reporter 0.42:vector 0.00875:PGC-1a 0.035; for Fold activation, GAL-mERRg: reporter 0.42:vector 0.00875, no PGC-1a
T4 construct: expressed in transfected cells; host or cells: CV-1
T4 sequence (P62509 233-457 limits assumed): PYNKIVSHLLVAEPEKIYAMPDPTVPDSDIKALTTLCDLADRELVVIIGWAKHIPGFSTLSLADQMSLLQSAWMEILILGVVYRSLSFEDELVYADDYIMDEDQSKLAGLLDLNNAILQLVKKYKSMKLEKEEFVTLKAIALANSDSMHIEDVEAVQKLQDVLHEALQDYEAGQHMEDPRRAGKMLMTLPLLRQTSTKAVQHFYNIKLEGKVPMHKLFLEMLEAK

[5] = molecular target: T5, human ERβ (Homo sapiens, UniProt Q92731); experiment: ERE-TK-luc reporter transactivation assay in CV-1 cells, full-length hERb; type: cell-based
T5 construct: Human ERα and ERβ were examined as full-length proteins using an estrogen receptor responsive reporter construct; expressed in transfected cells; host or cells: CV-1
T5 sequence (Q92731 whole entry): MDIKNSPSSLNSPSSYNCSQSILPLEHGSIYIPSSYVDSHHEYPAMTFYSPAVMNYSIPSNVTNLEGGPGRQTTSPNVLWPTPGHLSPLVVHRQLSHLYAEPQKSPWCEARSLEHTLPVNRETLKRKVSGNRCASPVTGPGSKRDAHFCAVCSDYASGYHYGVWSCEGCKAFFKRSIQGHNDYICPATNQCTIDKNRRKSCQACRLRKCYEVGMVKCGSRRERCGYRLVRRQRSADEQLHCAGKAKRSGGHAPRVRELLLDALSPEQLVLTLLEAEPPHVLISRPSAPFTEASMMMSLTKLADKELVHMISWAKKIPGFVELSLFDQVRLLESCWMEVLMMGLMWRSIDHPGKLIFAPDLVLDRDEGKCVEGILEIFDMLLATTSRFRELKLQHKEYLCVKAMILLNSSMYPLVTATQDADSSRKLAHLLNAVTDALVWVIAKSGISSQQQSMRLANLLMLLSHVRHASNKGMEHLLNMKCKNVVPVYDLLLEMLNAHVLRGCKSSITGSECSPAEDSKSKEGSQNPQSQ
Protocol: Human ERα and ERβ were examined as full-length proteins using an estrogen receptor responsive reporter construct.
Suitable reporter gene constructs are well known to skilled workers in the fields of biochemistry and molecular biology. […] Other vectors known in the art can be used in the methods of the present invention.
CV-1 cells for the activation assays were grown in Dulbecco's modified Eagle's medium supplemented with 10% resin charcoal-stripped fetal bovine serum, 50 U/ml penicillin G and 50 μg/ml streptomycin sulfate (DMEM-FBS) at 37° C. in 5% CO2. One day prior to transfection, cells were plated to 50-80% confluence using phenol red free DMEM-FBS.

Fold activation, HRHN-GAL ([1]; 0.3 μM): 1.14 fold | Fold activation, HRHN-GAL ([1]; 1 μM): 1.07 fold | Fold activation, HRHN-GAL ([1]; 3 μM (first 3 μM column)): 1.02 fold | Fold activation, HRHN-GAL ([1]; 3 μM (second 3 μM column)): 1.12 fold | Fold activation, HRHN-GAL ([1]; 10 μM): 1.26 fold | Fold activation, HRHN-GAL ([1]; 30 μM): 1.25 fold | Fold activation, HRHN-GAL + PGC-1a ([1]; reporter 0.42:vector 0.00875:PGC-1a 0.035, 0.3 μM): 1.26 fold | Fold activation, HRHN-GAL + PGC-1a ([1]; reporter 0.42:vector 0.00875:PGC-1a 0.035, 1 μM): 1.17 fold | Fold activation, HRHN-GAL + PGC-1a ([1]; reporter 0.42:vector 0.00875:PGC-1a 0.035, 3 μM (first 3 μM column)): 1.13 fold | Fold activation, HRHN-GAL + PGC-1a ([1]; reporter 0.42:vector 0.00875:PGC-1a 0.035, 3 μM (second 3 μM column)): 1.97 fold | Fold activation, HRHN-GAL + PGC-1a ([1]; reporter 0.42:vector 0.00875:PGC-1a 0.035, 10 μM): 1.68 fold | Fold activation, HRHN-GAL + PGC-1a ([1]; reporter 0.42:vector 0.00875:PGC-1a 0.035, 30 μM): 1.93 fold | Fold activation, GAL-hERRa + PGC-1a ([2]; 0.3 μM): 1.26 fold | Fold activation, GAL-hERRa + PGC-1a ([2]; 1 μM): 1.22 fold | Fold activation, GAL-hERRa + PGC-1a ([2]; 3 μM (first 3 μM column)): 2.11 fold | Fold activation, GAL-hERRa + PGC-1a ([2]; 3 μM (second 3 μM column)): 1.93 fold | Fold activation, GAL-hERRa + PGC-1a ([2]; 10 μM): 2.18 fold | Fold activation, GAL-hERRa + PGC-1a ([2]; 30 μM): 2.36 fold | Fold activation, GAL-hERRa ([2]; 0.3 μM): 0.77 fold | Fold activation, GAL-hERRa ([2]; 1 μM): 0.86 fold | Fold activation, GAL-hERRa ([2]; 3 μM (first 3 μM column)): 0.89 fold | Fold activation, GAL-hERRa ([2]; 3 μM (second 3 μM column)): 1.51 fold | Fold activation, GAL-hERRa ([2]; 10 μM): 1.82 fold | Fold activation, GAL-hERRa ([2]; 30 μM): 2.03 fold | Activation of ERRα ([2]; in the presence of PGC-1a): can activate | Fold activation, GAL-L-hERRb + PGC-1a ([3]; 0.3 μM): 0.77 fold | Fold activation, GAL-L-hERRb + PGC-1a ([3]; 1 μM): 0.78 fold | Fold activation, GAL-L-hERRb + PGC-1a ([3]; 3 μM (first 3 μM column)): 1.06 fold | Fold activation, GAL-L-hERRb + PGC-1a ([3]; 3 μM (second 3 μM column)): 1.65 fold | Fold activation, GAL-L-hERRb + PGC-1a ([3]; 10 μM): 1.79 fold | Fold activation, GAL-L-hERRb + PGC-1a ([3]; 30 μM): 2.61 fold | Fold activation, GAL-L-hERRb ([3]; 0.3 μM): 1.09 fold | Fold activation, GAL-L-hERRb ([3]; 1 μM): 1.05 fold | Fold activation, GAL-L-hERRb ([3]; 3 μM (first 3 μM column)): 0.87 fold | Fold activation, GAL-L-hERRb ([3]; 3 μM (second 3 μM column)): 0.96 fold | Fold activation, GAL-L-hERRb ([3]; 10 μM): 1.57 fold | Fold activation, GAL-L-hERRb ([3]; 30 μM): 1.48 fold | Activation of ERRβ ([3]; in the presence of PGC-1a): can activate | Fold activation, GAL-mERRg + PGC-1a ([4]; 0.3 μM): 0.92 fold | Fold activation, GAL-mERRg + PGC-1a ([4]; 1 μM): 1.06 fold | Fold activation, GAL-mERRg + PGC-1a ([4]; 3 μM (first 3 μM column)): 1.53 fold | Fold activation, GAL-mERRg + PGC-1a ([4]; 3 μM (second 3 μM column)): 1.63 fold | Fold activation, GAL-mERRg + PGC-1a ([4]; 10 μM): 2.45 fold | Fold activation, GAL-mERRg + PGC-1a ([4]; 30 μM): 2.46 fold | Fold activation, GAL-mERRg ([4]; 0.3 μM): 1.04 fold | Fold activation, GAL-mERRg ([4]; 1 μM): 0.89 fold | Fold activation, GAL-mERRg ([4]; 3 μM (first 3 μM column)): 0.92 fold | Fold activation, GAL-mERRg ([4]; 3 μM (second 3 μM column)): 1.40 fold | Fold activation, GAL-mERRg ([4]; 10 μM): 1.88 fold | Fold activation, GAL-mERRg ([4]; 30 μM): 1.59 fold | Activation of ERRγ ([4]; in the presence of PGC-1a): can activate | Fold Activation, ERE-TK-luc, hERb ([5]; Table 7, CV-1, drug conc 30 μM): 1.74 fold | Activation of ERb ([5]; specificity for ERRs): do not activate
SMILES: O=C(NN=Cc1ccccc1)c1ccc(O)cc1 [DY162, 4-Hydroxy-benzoic acid benzylidene-hydrazide]
